Measurements: article PMC4376724, “Differential Phenotypic and Functional Profiles of TcCA-2 -Specific Cytotoxic CD8^+ T Cells in the Asymptomatic versus Cardiac Phase in Chagasic Patients” (PLoS ONE, 2015)

Test system: PBMC from HLA-A*02:01 Chagas disease patients and healthy donors
Assay: Cytokine secretion test (Bio-Plex multiplex immunoassay) in PBMC supernatants
Format: cell-based, human
Settings: 1 μM peptide, 30 h; for IFNγ / IL6 / TNFα: non-peptide control subtracted
Protocol: For the screening of the recognition of TcCA-2 epitopes by Chagas disease patients, 10 HLA-A*02:01 adult patients in the asymptomatic phase of the disease (IND) were enrolled. For cytotoxicity, functional activity determinations and phenotypic characterization another group of 19 HLA-A*02:01 adults Chagas disease patients and 9 healthy donors were analyzed. These patients were at the chronic stage of the disease and were considered to be at the asymptomatic phase (IND, n = 8) if there was no evidence of having cardiac or gastrointestinal disorders. Chronic Chagas cardiomyopathy patients (CCC, n = 11) were stratified into G1 to G3 stages following Kuschnir classification according to clinical criteria and radiological, electrocardiographic and echocardiography analyses. The number of patients was the one recommended by the Hospital Ethical Committee. […] The patients were enrolled in both studies (functional and phenotypic characterization, IND n = 6 and CCC n = 7) when the available number of purified PBMC (limited by the cellular number isolated from each subject) was enough for both analyses. Another four CCC patients had to be enrolled to perform the phenotypic analysis in order to reach statistical significance.
Cytokine secretion (IL-4, IL-10, IL-6, IFN-γ, TNF-α) was determined in the supernatants of PBMC from Chagas disease patients and healthy donors, after in vitro stimulation with 1 μM of each peptide for 30 h at 37°C in RPMI supplemented with 10% iFBS as explained before. The secretion profile was determined by using a bead-based multiplex immunoassay system (Bio-Plex, Bio-Rad), following the manufacturer's instructions. The response was considered positive if an increase in the secretion of cytokines was at least three folds higher than the secretion by un-stimulated cells (basal secretion level) and at least, 4 pg/mL for IL-4, 2 pg/mL for IL-10, 15 pg/mL for IL-6 and 5 pg/mL for IFN-γ and TNF-α. The positive control consisted of 50 ng/mL Phorbol 12 myristate 13-acetate (PMA) and 500 ng/mL ionomycin (Sigma). Cytokine levels were quantified in each sample by using the Bio-Plex Manager software 4.1 (Bio-Rad).
Functional analysis of the epitope-specific CD8^+ T cells was carried out by the determination of the secretion profile of IFN-γ, TNF-α, IL-4, IL10 and IL-6 cytokines. […] CD8^+ T cells from 2 out of 11 patients responded to stimulation with peptide TcCA-2_273-281 by secreting IL-6. […] There was no secretion of IL-4 and IL-10 in PBMC after stimulation with any one of the four TcCA-2 peptides (data not shown). IFN-γ, TNF-α and IL6 cytokines secretion levels were higher in patients at the asymptomatic phase of the disease than in Chagas patients with associated cardiomyopathy.

AAAGDKLSL [TcCA-2_273-281]
Patients whose cells responded by secreting IL-6 (PBMC of Chagas patients, same positivity criteria): 2 out of 11
IFNγ (PBMC of patient CCC I 456): 0 pg/mL
IL6 (PBMC of patient CCC I 456): 0 pg/mL
TNFα (PBMC of patient CCC I 456): 0 pg/mL
IFNγ (PBMC of patient CCC I 770): 0 pg/mL
IL6 (PBMC of patient CCC I 770): 22 pg/mL
TNFα (PBMC of patient CCC I 770): 4 pg/mL
IFNγ (PBMC of patient CCC I 861): 2 pg/mL
IL6 (PBMC of patient CCC I 861): -4 pg/mL
TNFα (PBMC of patient CCC I 861): -2 pg/mL
IFNγ (PBMC of patient CCC I 884): 0 pg/mL
IL6 (PBMC of patient CCC I 884): 0 pg/mL
TNFα (PBMC of patient CCC I 884): 0 pg/mL
IFNγ (PBMC of patient CCC III 509): 0 pg/mL
IL6 (PBMC of patient CCC III 509): -4 pg/mL
TNFα (PBMC of patient CCC III 509): -5 pg/mL
IFNγ (PBMC of patient IND 365): 1 pg/mL
IL6 (PBMC of patient IND 365): 43 pg/mL
TNFα (PBMC of patient IND 365): -6 pg/mL
IFNγ (PBMC of patient IND 388): 2 pg/mL
IL6 (PBMC of patient IND 388): 36 pg/mL
TNFα (PBMC of patient IND 388): 7 pg/mL
IFNγ (PBMC of patient IND 510): 0 pg/mL
IL6 (PBMC of patient IND 510): 1 pg/mL
TNFα (PBMC of patient IND 510): -1 pg/mL
IFNγ (PBMC of patient IND 535): 0 pg/mL
IL6 (PBMC of patient IND 535): -5 pg/mL
TNFα (PBMC of patient IND 535): -1 pg/mL
IFNγ (PBMC of patient IND 571): 0 pg/mL
IL6 (PBMC of patient IND 571): 0 pg/mL
TNFα (PBMC of patient IND 571): 0 pg/mL
IFNγ (PBMC of patient IND 917): 7 pg/mL
IL6 (PBMC of patient IND 917): 18 pg/mL
TNFα (PBMC of patient IND 917): 11 pg/mL
IFNγ (PBMC of subject HD 001): 6 pg/mL
IL6 (PBMC of subject HD 001): 1 pg/mL
TNFα (PBMC of subject HD 001): -8 pg/mL
IFNγ (PBMC of subject HD 004): 0 pg/mL
IL6 (PBMC of subject HD 004): -9 pg/mL
TNFα (PBMC of subject HD 004): 0 pg/mL
IFNγ (PBMC of subject HD 005): -19 pg/mL
IL6 (PBMC of subject HD 005): -183 pg/mL
TNFα (PBMC of subject HD 005): -11 pg/mL
IFNγ (PBMC of subject HD 006): 6 pg/mL
IL6 (PBMC of subject HD 006): 1 pg/mL
TNFα (PBMC of subject HD 006): 2 pg/mL
IFNγ (PBMC of subject HD 008): -1 pg/mL
IL6 (PBMC of subject HD 008): 9 pg/mL
TNFα (PBMC of subject HD 008): 0 pg/mL
IFNγ (PBMC of subject HD 011): 0 pg/mL
IL6 (PBMC of subject HD 011): -11 pg/mL
TNFα (PBMC of subject HD 011): -8 pg/mL
IFNγ (PBMC of subject HD 340): 0 pg/mL
IL6 (PBMC of subject HD 340): 9 pg/mL
TNFα (PBMC of subject HD 340): 4 pg/mL
IFNγ (PBMC of subject HD 664): -3 pg/mL
IL6 (PBMC of subject HD 664): 0 pg/mL
TNFα (PBMC of subject HD 664): 0 pg/mL
